Values quoted from earlier work, collected in patent publication US7625888B2, “Fused triazole derivatives as dipeptidyl peptidase-IV inhibitors for the treatment or prevention of diabetes” (Merck & Co., Inc., priority 2004, dated 2009).

Key:
cardiac allograft = conditions: rats; doubled from day 7
hematopoiesis = conditions: mouse, cyclophosphamide-induced neutropenia
DPP-IV = target: T1, DPP-IV (Homo sapiens, UniProt P27487)
T1 construct: GRF is rapidly degraded in plasma to GRF[3-44]
T1 sequence (P27487 39-766 limits assumed, species assumed): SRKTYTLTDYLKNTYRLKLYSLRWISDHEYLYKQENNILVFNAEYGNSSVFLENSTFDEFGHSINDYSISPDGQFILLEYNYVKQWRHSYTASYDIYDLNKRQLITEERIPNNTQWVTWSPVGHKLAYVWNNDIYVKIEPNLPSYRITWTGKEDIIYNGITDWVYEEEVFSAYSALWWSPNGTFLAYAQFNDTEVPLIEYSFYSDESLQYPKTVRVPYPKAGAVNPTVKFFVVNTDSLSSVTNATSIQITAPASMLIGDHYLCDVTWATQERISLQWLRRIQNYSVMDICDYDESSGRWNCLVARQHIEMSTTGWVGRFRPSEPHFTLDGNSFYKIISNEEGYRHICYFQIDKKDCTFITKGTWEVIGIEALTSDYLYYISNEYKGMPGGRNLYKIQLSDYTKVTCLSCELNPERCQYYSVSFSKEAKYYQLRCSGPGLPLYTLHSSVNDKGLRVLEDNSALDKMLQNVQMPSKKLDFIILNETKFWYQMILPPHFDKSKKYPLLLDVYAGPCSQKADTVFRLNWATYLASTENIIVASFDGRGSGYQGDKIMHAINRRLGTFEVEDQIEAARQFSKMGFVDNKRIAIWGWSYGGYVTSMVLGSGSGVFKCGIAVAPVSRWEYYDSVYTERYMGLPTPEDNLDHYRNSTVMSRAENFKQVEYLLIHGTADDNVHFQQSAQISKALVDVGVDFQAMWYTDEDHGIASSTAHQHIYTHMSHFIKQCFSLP

Compound: CC(C)N1CCC(c2ccccc2)(c2ccccc2)CC1 [Prodipine, Pro-Pro-diphenyl-phosphonate]
- cardiac allograft survival (cardiac allograft): 14 day

Compound: CC(C)[C@H](N)C(=O)N1CCC[C@H]1B(O)O [Val-Boro-Pro]
- effect on hematopoiesis (hematopoiesis): stimulated hematopoiesis

Compound: diprotin A
- degradation of GRF in plasma to GRF[3-44] (DPP-IV): prevented
